Earlier results, collected in patent US6765015B2, “Halogenated paclitaxel derivatives” (Xechem International, Inc., priority 1995, dated 2004).

Tested on: leukemic tumors
Conditions: in vivo

## C/C=C(\C)C(=O)N[C@@H](c1ccccc1)[C@@H](O)C(=O)O[C@H]1C[C@@]2(O)[C@@H](OC(=O)c3ccccc3)[C@@H]3[C@]4(OC(C)=O)CO[C@@H]4C[C@H](O)[C@@]3(C)C(=O)[C@H](OC(C)=O)C(=C1C)C2(C)C [Cephalomannine, cephalomannine]
  remission of leukemic tumors: effective in causing remission of leukemic tumors
